Data from publication PMC3542062, “A phenyl-thiadiazolylidene-amine derivative ejects zinc from retroviral nucleocapsid zinc fingers and inactivates HIV virions” (Retrovirology, 2012).

Legend:
[1] = tested on: HIV-2 ROD; test: Virucidal assay: virus pre-incubated with compound, diluted, titrated on MT-4 cells; details: for CCID50/ml HIV-2 ROD: no drug 5.4 × 10^6
[2] = tested on: NCp7(11-55); test: Zinc ejection monitored by Trp37 intrinsic fluorescence; assay type: biochemical, HIV-1
Procedure: Ejection of 50% of the zinc is observed in less than 5 minutes (Figure 4C).
As a reference, NCp7(11-55) was treated with 1 mM EDTA, a well known zinc chelator (triangle). […] (B) Time-dependent zinc ejection from NCp7(11-55). […] The data points (stars) corresponded to the fluorescence intensity at the maximum emission wavelength from panel B. Solid line represents a double-exponential fit to the data. (D) Zinc ejection from NCp7(11-55) in the presence of an excess of zinc. Emission spectra of the NCp7(11-55) (1 μM) in the presence of an excess of 100 μM zinc (triangle). […] The emission spectrum of NCp7(11-55) incubated with 1 mM EDTA (triangle) for one hour is given as a reference.
The NC(11-55) peptide was synthesized by solid phase peptide synthesis on a 433A synthesizer (ABI, Foster City, CA), as previously described. The lyophilized peptide was dissolved in water, and its concentration was determined using an extinction coefficient of 5,700 M^–1 x cm^–1 at 280 nm. Next, 2.5 molar equivalents of ZnSO4 were added to the peptide and pH was raised to its final value, by adding buffer. The increase of pH was done only after zinc addition to avoid oxidization of the zinc-free peptide.
Absorption spectra were recorded on a Cary 400 spectrophotometer. Fluorescence spectra were recorded at 20°C on a Fluorolog spectrofluorometer (Horiba, Jobin-Yvon), equipped with a thermostated cell compartment. Excitation wavelength was 295 nm and 520 nm, for NC(11-55) and Rh6G-5^′-cTAR-3^′-Dabcyl, respectively. The spectra were corrected for dilution and buffer fluorescence. The protein spectra were additionally corrected for screening effects due to the zinc ejecting agent, using: […]

[3] = tested on: HSV; test: Activity against replication of non-retroviruses; assay type: cell-based
[4] = tested on: SIV Mac251; test: MT-4/MTT-assay, protection against virus-induced cytopathic effect; assay type: cell-based; details: MT-4 cells, MTT, 5 days after infection
[5] = tested on: NC(11-55); test: Inhibition of NC(11-55)-induced destabilization of cTAR (Rh6G-cTAR-Dabcyl fluorescence); assay type: biochemical, HIV-1
Procedure: The NCp7-induced destabilization of cTAR can be sensitively monitored by using the doubly labeled Rh6G-5^′-cTAR-3^′-Dabcyl derivative.
(A) Emission spectra of Rh6G-cTAR-Dabcyl (0.1 μM) recorded in the absence (circle) or in the presence of NCp7(11-55) (1 μM) (square). […] Excitation wavelength was 520 nm. […] Excitation wavelength was 520 nm.
An extinction coefficient at 260 nm of 521,910 M^–1 x cm^–1 was used for cTAR. All experiments were performed at 20°C in 25 mM Tris–HCl, pH 7.5, 30 mM NaCl, and 0.2 mM MgCl2[28].

[6] = MTT-based viability assay in Jurkat cells; details: human
[7] = tested on: UG270 subtype D; test: Virucidal assay on clinical isolates, titration on PBMCs; assay type: cell-based, HIV-1; details: 125 μM, 1 h 37°C, untreated control 25781
[8] = Cytostatic activity, CEM cell proliferation; assay type: cell-based, human; details: human, CEM T-lymphocyte cells
[9] = tested on: AZTR HIV-1 strain; test: GFP-assay in Jurkat A72 (LTR-GFP) cells; assay type: cell-based; details: Human immunodeficiency virus 1, Jurkat, 72 h, read-out: EC50 AZTR
[10] = tested on: HIV-1 IIIB; test: MT-4/MTT-assay, protection against virus-induced cytopathic effect; assay type: cell-based; details: MT-4 cells, MTT, 5 days after infection
[11] = Cytotoxicity in mock-infected MT-4 cells (MTT); assay type: cell-based; details: human, mock-infected MT-4 cells
[12] = tested on: RSV; test: Activity against replication of non-retroviruses; assay type: cell-based
[13] = tested on: ETH2220 subtype C; test: Virucidal assay on clinical isolates, titration on PBMCs; assay type: cell-based, HIV-1; details: 125 μM, 1 h 37°C, untreated control 64969
[14] = tested on: NL4.3/WT; test: GFP-assay in Jurkat A72 (LTR-GFP) cells; assay type: cell-based, HIV-1; details: Human immunodeficiency virus 1, Jurkat, 72 h, read-out: EC50 NL4.3/WT
[15] = tested on: HIV-1 NL4.3 transmission from Raji/DC-SIGN cells to C8166 cells; test: Transmission of DC-SIGN-captured virus to C8166 cells in presence of compound (procedure C); assay type: cell-based; details: Human immunodeficiency virus 1; HIV-captured Raji/DC-SIGN cocultivated with C8166 in presence of compound; giant cell formation
[16] = tested on: CMV; test: Activity against replication of non-retroviruses; assay type: cell-based
[17] = tested on: HIV-1 IIIB chronically-infected HuT-78 cells; test: Gag processing in virions from HIV-1 IIIB chronically-infected HuT-78 cells (western blot); assay type: cell-based; details: HuT-78/IIIB cells treated 43 hours; WDO-217 50, 25 μM; ritonavir 2.7 μM; SRR-SB3 75, 15 μM
Procedure: Recently, it has been shown that this new mechanism involves acetylation of the NCp7 region of Gag, thereby blocking Gag processing.
HIV-1 IIIB virions from persistently infected HuT-78 cells treated with different concentrations of compound were analysed by gel electrophoresis and immunoblotted with antibody against capsid.
Chronically-infected HIV-1 IIIB HuT-78 cells (HuT-78/IIIB) were washed four times with PBS to remove all free virions before treatment and 2 × 10^5 cells were resuspended in 1 ml compound-containing medium for 43 hours at 37°C. Then, virions were prepared from clarified supernatants (10 min at 300 g) by centrifugation at 36670 g for 2 hours at 4°C. Protein from lysed virions were separated by SDS-PAGE on a NuPage® Novex 4-12% Bis-Tris gel (Invitrogen) and transferred on a hydrophobic polyvinylidene difluoride (PVDF) membrane (Amersham Hybond™-P). The blot was blocked overnight at 4°C by 5% dry milk powder in Western blot wash solution (WBWS; PBS + 0.5% Tween 20), washed three times for 5 minutes with WBWS and incubated with a mouse anti-HIV-1 p24 antibody (1:5000) from Abcam. The blot was then washed three times for 5 minutes with WBWS and incubated for 1 h with a goat anti-mouse IgG-HRP secondary antibody (1:2500) from Santa Cruz Biotechnology. […]

[18] = tested on: HIV-1 virus particles; test: Virion-associated genomic RNA of pre-treated virus (RT-qPCR, Northern blot); details: compound-cleared HIV-1 virus stock, RT-qPCR or Northern blot
[19] = tested on: HIV-1 NL4.3 transmission from Raji/DC-SIGN cells to C8166 cells; test: Transmission of DC-SIGN-captured pretreated virus to C8166 cells (procedure B); assay type: cell-based; details: Human immunodeficiency virus 1; Raji/DC-SIGN exposed to compound-pretreated (1 h) HIV, compound removed, cocultured with C8166
[20] = 10 μM compound, 1 μM NCp7(11-55)
[21] = 10 μM compound, 1 μM NC(11-55), 0.1 μM cTAR

SMILES: Cn1sc(=N)nc1-c1ccccc1 [WDO-217, 2-methyl-3-phenyl-2H-[1,2,4]thiadiazol-5-ylideneamine]
- CCID50/ml HIV-2 ROD ([1]; virus incubated 1 h 37°C with 0.2 μM): 1.6 × 10^6 CCID50/ml
- CCID50/ml HIV-2 ROD ([1]; virus incubated 1 h 37°C with 1 μM): 1 × 10^6 CCID50/ml
- CCID50/ml HIV-2 ROD ([1]; virus incubated 1 h 37°C with 5 μM): 2.1 × 10^6 CCID50/ml
- CCID50/ml HIV-2 ROD ([1]; virus incubated 1 h 37°C with 25 μM): 0 CCID50/ml
- CCID50/ml HIV-2 ROD ([1]; virus incubated 1 h 37°C with 625 μM): 0 CCID50/ml
- Infectivity of pre-incubated HIV-2 virus ([1]; virus incubated at 26, 130 and 650 μM, 1 h 37°C): no longer able to infect cells
- time to complete zinc ejection [2, 20]: 35 min
- time to ejection of 50% of the zinc [2, 20]: less than 5 minutes
- zinc ejection (decrease of Trp37 fluorescence, same as 1 mM EDTA) ([2]; 10-fold excess (10 μM), 1 h pre-incubation): efficiently ejects zinc
- activity against replication of HSV [3]: inactive
- EC50 [4]: 5.3 ± 1.5 µM
- EC50 ([4]; Simian immunodeficiency virus, MT4, 120 h): 5 ± 1 µM
- time to 50% inhibition of NC(11-55)-induced cTAR destabilization [5, 21]: less than 5 minutes
- time to complete inhibition of NC(11-55)-induced cTAR destabilization [5, 21]: 50 min
- NC(11-55) ability to destabilize cTAR after preincubation ([5]; molar ratio 10:1 compound to NC(11-55)): full loss
- CC50 [6]: 75 ± 11 µM
- CCID50/ml UG270 subtype D [7]: 6446 CCID50/ml
- CC50 [8]: 94 ± 15 µM
- EC50 [9]: 1.5 ± 0.6 µM
- EC50 ([10]; Human immunodeficiency virus 1, IIIB, MT4, 120 h): 5 ± 3 µM
- EC50 [10]: 7.9 ± 3.3 µM
- CC50 at 5 days [11]: ~72 µM
- activity against replication of RSV [12]: inactive
- CCID50/ml ETH2220 subtype C [13]: 2558 CCID50/ml
- EC50 [14]: 0.9 ± 0.05 µM
- IC50 [15]: 8.3 ± 0.4 µM
- activity against replication of CMV [16]: inactive
- accumulation of unprocessed Gag polyprotein in progeny virus [17]: did not result in a drastic accumulation
- viral genomic RNA content after treatment [18]: clear decrease
- IC50 [19]: 2.2 ± 1 µM
